Broadly, the IC50 is the concentration that inhibits the measured activity by half.

The values below come from US20220194945A1, “Imidazolopyridine Compounds For IRE1 Inhibition” (Optikira, LLC, priority 2019, published 2022).

One experiment has as its target T1, IRE1α (Homo sapiens, UniProt O75460).
T1 construct: purchased Signal Chem E31-11G
Put plainly: Biochemical assay: inhibition of RNase activity of IRE1α. As to conditions: IRE1α kinase (E31-11G, Signal Chem) 0.325 nM, substrate 100 nM, 30 min pre-incubation, read-out: In vitro assay IC50. As to the method:
Biochemical Assay: Inhibition of RNase activity of IRE1α
The RNase reactions were performed in 384 well black ProxiPlate-384 Plus plates (PERKIN Elmer) using 50 mM Tris assay buffer with 0.5 mM MgCl2, 10 mM KCl, 0.03% Tween, 2 mM DTT and 1% DMSO. Test compounds were prepared on the day of assay and dispensed using D300 digital dispenser as a 10-point ½ log dilution series in duplicate, normalized to a final DMSO concentration of […]. Test compounds were pre-incubated for 30 min at room temperature with IRE1α kinase (E31-11G from Signal Chem) in 2.5 μL of assay buffer. Then 2.5 μl of assay buffer containing substrate (5′ Alexa Fluor 647-rCrArU rGrUrC rCrGrC rArGrC rGrCrArUrG-Iowa Black RQ quencher 3′) added, giving a final concentration of enzyme of 0.325 nM and of substrate of 100 nM. After 20 minutes incubation at room temperature the reactions were stopped by added 5 μL of 5M urea, incubated at room temperature for 10 minutes and fluorescence measured on a plate reader (EnVision, PerkinElmer) IC50 values calculated by fitting a sigmoidal curve to percent inhibition of control versus compound concentration.
(§1) In vitro assay data are for the inhibition of RNase activity of IRE1α. Cellular assay (IC50 data) are for the XBP1 splicing assay.

Another experiment has as its system XBP1 splicing. Briefly: Cellular XBP1 splicing assay. Particulars: Homo sapiens, ARPE-19 cells stably expressing XBP1-nano-luciferase, thapsigargin 150 nM, 4 hour incubation. It is filed as cell-based. As to the method: Cellular XBP1 Splicing Assay
ARPE-19 cells stably expressing XBP1 (a.a. 1-376) with nano-luciferase gene sequence linked so it is in frame when XBP1 is spliced, were cultured in F12 media, 10% FBS, 0.044% sodium bicarbonate, 150 μg/ml hygromycin B and seeded for assays at 5,000 cells in 384 well plates in culture media without hygromycin B and incubated at 37° C./5% CO2. After overnight incubation test compounds were added to the cell plate in a 10-point ½ log dilution series in duplicate (final DMSO concentration 0.117%). After further incubation of 30 minutes thapsigargin was added (final concentration 150 nM) and then another 4 hour incubation. A NanoLuc luciferase assay (Promega) was used according to the manufacturer's instructions to detect the luciferase and luminescence measured on a luminometer (EnVision, PerkinElmer). IC50 values calculated by fitting a sigmoidal curve to percent inhibition of control of compound concentration.
as §1

T1 sequence (O75460 468-977 limits assumed): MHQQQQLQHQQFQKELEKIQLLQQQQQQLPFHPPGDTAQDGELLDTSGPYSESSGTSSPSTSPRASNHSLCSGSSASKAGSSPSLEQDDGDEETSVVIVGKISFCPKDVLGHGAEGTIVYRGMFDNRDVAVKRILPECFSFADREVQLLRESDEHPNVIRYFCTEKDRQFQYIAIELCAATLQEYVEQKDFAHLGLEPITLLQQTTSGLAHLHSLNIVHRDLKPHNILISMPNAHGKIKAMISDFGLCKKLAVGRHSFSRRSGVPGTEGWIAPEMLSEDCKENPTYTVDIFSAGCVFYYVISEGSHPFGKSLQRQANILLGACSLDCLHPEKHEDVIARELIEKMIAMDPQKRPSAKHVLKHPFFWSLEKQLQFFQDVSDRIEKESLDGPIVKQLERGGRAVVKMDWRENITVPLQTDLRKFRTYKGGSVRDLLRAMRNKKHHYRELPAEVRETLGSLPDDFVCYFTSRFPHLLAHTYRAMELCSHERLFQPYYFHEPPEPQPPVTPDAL

Regarding `CC(C)c1nc(-c2ccc(NS(=O)(=O)Cc3ccccc3Cl)c(F)c2)c2c(N)ncc(C3=CCC(N(C)C)CC3)n12` (centres unmarked) [Example 22], the IC50 at IRE1α came to 1.5 nM; in the experiment with XBP1 splicing, 1.7 nM.
